{
  "source": "patent US11725011B2",
  "about": "“Bicyclic urea kinase inhibitors and uses thereof” (The Broad Institute, Inc., priority 2016, dated 2023)",
  "assay_in_all_cases": "KINOMEscan",
  "format_in_all_cases": "binding",
  "conditions_in_all_cases": "1 uM",
  "key": {"[1]": {"target": "ABL1 (E255K)-phosphorylated (Homo sapiens (Human), UniProt P00519, E255K)", "sequence (P00519 whole entry E255K)": "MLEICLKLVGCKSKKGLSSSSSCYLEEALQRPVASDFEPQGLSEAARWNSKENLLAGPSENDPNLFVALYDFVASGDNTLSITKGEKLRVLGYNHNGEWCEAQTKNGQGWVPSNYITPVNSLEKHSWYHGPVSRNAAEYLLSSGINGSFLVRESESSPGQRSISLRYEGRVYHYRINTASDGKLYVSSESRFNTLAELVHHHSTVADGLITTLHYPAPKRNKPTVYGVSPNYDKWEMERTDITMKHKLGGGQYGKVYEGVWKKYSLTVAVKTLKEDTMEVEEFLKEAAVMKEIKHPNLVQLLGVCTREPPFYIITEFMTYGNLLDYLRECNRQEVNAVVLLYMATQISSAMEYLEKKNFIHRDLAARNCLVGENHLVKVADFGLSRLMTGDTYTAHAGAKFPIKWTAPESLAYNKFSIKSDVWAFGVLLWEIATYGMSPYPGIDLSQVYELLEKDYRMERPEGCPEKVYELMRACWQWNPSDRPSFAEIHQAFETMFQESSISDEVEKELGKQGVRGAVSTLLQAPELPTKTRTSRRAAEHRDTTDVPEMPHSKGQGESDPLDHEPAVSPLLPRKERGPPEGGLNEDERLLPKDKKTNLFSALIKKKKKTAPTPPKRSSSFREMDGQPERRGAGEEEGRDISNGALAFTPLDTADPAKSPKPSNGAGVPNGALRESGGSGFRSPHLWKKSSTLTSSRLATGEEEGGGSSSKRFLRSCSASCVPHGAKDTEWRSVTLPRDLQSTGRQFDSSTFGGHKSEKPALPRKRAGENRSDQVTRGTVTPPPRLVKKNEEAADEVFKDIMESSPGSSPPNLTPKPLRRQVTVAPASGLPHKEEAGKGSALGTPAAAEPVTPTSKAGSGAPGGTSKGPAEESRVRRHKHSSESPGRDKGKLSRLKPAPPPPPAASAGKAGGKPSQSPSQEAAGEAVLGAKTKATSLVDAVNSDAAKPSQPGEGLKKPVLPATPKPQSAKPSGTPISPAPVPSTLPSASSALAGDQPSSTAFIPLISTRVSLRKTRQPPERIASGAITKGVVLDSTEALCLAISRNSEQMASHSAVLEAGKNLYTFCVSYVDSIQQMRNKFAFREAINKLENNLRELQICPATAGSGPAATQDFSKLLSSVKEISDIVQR"}, "ABL1-phosphorylated": {"target": "ABL1-phosphorylated (Homo sapiens (Human), UniProt P00519)", "sequence (P00519 whole entry)": "as the sequence (P00519 whole entry E255K) above, with K255E counted along it"}, "ALK": {"target": "ALK (Homo sapiens (Human), UniProt Q9UM73)"}, "AMPK-alpha1": {"target": "AMPK-alpha1 (Homo sapiens (Human), UniProt Q13131)"}, "BIKE": {"target": "BIKE (Homo sapiens (Human), UniProt Q9NSY1)"}, "BMX": {"target": "BMX (Homo sapiens (Human), UniProt P51813)"}, "CDKL5": {"target": "CDKL5 (Homo sapiens (Human), UniProt O76039)"}, "CLK4": {"target": "CLK4 (Homo sapiens (Human), UniProt Q9HAZ1)"}, "CSF1R": {"target": "CSF1R (Homo sapiens (Human), UniProt P07333)"}, "DAPK2": {"target": "DAPK2 (Homo sapiens (Human), UniProt Q9UIK4)", "sequence (Q9UIK4 whole entry)": "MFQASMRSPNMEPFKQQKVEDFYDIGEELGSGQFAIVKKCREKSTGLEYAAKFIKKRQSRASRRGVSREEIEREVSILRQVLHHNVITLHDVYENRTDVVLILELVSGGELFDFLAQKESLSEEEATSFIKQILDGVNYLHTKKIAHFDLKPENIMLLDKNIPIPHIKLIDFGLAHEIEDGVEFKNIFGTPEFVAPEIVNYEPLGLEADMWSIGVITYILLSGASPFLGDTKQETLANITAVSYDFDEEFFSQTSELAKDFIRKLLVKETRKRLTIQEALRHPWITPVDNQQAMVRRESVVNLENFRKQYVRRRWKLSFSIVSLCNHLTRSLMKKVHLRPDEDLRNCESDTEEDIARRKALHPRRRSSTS"}, "DMPK2": {"target": "DMPK2 (Homo sapiens (Human), UniProt Q6DT37)"}, "EGFR (E746-A750del)": {"target": "EGFR (E746-A750del) (Homo sapiens (Human), UniProt P00533, DEL746-750)"}, "EGFR (G719S)": {"target": "EGFR (G719S) (Homo sapiens (Human), UniProt P00533, G719S)"}, "ERK1": {"target": "ERK1 (Homo sapiens (Human), UniProt P27361)", "sequence (P27361 whole entry)": "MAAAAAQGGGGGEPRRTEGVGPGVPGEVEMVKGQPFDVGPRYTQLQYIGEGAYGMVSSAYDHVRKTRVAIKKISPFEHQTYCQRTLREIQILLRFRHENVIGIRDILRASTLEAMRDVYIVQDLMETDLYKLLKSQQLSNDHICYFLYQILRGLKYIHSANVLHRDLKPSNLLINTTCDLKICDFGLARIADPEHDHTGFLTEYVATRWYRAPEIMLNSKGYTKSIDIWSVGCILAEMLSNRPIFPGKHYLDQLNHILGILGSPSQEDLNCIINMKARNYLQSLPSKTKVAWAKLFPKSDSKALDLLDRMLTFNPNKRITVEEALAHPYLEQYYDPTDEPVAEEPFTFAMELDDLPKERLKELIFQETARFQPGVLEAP"}, "GRK4": {"target": "GRK4 (Homo sapiens (Human), UniProt P32298)"}, "INSR": {"target": "INSR (Homo sapiens (Human), UniProt P06213)"}, "KIT (D816V)": {"target": "KIT (D816V) (Homo sapiens (Human), UniProt P10721, D816V)"}, "LATS1": {"target": "LATS1 (Homo sapiens (Human), UniProt O95835)"}, "MEK6": {"target": "MEK6 (Homo sapiens (Human), UniProt P52564)", "sequence (P52564 whole entry)": "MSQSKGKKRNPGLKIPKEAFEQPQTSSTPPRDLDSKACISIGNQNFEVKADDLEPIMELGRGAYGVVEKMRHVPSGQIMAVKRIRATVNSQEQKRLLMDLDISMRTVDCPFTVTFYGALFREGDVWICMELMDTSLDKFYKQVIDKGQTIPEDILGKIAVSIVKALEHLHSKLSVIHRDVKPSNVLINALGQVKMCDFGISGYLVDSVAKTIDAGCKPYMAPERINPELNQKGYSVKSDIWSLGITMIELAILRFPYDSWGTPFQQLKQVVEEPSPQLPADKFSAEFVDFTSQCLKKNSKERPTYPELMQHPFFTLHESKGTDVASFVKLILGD"}, "MET (M1250T)": {"target": "MET (M1250T) (Homo sapiens (Human), UniProt P08581, M1250T)"}, "MST1": {"target": "MST1 (Homo sapiens (Human), UniProt Q13043)"}, "MYLK": {"target": "MYLK (Homo sapiens (Human), UniProt Q15746)"}, "NEK11": {"target": "NEK11 (Homo sapiens (Human), UniProt Q8NG66)", "sequence (Q8NG66 whole entry)": "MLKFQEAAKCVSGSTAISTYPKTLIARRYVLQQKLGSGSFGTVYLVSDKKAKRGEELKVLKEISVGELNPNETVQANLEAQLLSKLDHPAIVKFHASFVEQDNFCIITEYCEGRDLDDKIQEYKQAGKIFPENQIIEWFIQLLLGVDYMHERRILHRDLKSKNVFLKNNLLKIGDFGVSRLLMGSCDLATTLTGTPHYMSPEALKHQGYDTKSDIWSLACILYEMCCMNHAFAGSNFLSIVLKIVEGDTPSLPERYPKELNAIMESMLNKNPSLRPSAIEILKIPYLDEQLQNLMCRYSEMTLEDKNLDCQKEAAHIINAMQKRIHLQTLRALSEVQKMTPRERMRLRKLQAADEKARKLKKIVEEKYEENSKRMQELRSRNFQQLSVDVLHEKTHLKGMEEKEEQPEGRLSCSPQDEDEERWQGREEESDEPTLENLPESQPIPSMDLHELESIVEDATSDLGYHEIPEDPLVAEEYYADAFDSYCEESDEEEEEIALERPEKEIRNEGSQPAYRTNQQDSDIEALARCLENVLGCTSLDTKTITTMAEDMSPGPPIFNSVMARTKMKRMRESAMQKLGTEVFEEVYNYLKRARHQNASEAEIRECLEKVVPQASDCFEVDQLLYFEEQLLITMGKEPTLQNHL"}, "NEK2": {"target": "NEK2 (Homo sapiens (Human), UniProt P51955)"}, "OSR1": {"target": "OSR1 (Homo sapiens (Human), UniProt O95747)"}, "PAK1": {"target": "PAK1 (Homo sapiens (Human), UniProt Q13153)"}, "PAK2": {"target": "PAK2 (Homo sapiens (Human), UniProt Q13177)"}, "PAK6": {"target": "PAK6 (Homo sapiens (Human), UniProt Q9NQU5)"}, "PCTK3": {"target": "PCTK3 (Homo sapiens (Human), UniProt Q07002)"}, "PFTAIRE2": {"target": "PFTAIRE2 (Homo sapiens (Human), UniProt Q96Q40)"}, "PHKG1": {"target": "PHKG1 (Homo sapiens (Human), UniProt Q16816)", "sequence (Q16816 whole entry)": "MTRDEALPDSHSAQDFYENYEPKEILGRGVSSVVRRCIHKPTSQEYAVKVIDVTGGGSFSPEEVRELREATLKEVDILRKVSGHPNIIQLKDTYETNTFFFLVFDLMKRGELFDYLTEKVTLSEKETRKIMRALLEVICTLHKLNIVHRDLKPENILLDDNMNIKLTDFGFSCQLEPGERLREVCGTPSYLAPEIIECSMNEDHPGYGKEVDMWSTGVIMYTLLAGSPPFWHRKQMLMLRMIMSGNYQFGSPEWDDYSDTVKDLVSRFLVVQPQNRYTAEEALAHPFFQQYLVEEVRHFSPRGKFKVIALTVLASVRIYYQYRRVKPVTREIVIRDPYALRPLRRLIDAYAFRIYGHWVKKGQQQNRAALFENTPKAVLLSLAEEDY"}, "PIK3CA (Q546K)": {"target": "PIK3CA (Q546K) (Homo sapiens (Human), UniProt P42336, Q546K)"}, "PIK3CD": {"target": "PIK3CD (Homo sapiens (Human), UniProt O00329)", "sequence (O00329 whole entry)": "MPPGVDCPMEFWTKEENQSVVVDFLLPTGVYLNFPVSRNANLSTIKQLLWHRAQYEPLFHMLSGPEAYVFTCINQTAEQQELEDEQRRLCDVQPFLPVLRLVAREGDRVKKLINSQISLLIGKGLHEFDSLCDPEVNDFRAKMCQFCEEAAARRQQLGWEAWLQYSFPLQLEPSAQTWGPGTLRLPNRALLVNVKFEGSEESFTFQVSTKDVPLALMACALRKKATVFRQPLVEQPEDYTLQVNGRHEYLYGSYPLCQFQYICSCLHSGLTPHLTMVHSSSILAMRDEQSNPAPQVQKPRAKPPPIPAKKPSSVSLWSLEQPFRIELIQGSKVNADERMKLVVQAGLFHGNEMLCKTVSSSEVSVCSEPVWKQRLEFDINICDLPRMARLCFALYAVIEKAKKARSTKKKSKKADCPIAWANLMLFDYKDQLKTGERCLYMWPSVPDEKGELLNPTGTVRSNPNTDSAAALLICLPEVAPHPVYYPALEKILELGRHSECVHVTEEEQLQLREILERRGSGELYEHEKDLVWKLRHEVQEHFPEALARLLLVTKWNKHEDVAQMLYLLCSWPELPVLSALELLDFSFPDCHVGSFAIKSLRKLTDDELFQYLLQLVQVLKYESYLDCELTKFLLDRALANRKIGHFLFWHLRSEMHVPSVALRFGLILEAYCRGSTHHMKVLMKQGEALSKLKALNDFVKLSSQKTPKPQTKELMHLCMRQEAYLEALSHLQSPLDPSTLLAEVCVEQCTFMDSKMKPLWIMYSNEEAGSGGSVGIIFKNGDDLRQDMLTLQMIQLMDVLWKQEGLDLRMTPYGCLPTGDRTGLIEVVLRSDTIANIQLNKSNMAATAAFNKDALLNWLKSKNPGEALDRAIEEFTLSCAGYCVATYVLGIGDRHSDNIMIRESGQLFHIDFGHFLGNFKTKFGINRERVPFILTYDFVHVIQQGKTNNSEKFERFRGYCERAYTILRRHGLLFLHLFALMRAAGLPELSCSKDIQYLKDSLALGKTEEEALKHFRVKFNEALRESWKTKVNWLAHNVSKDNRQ"}, "PIP5K1C": {"target": "PIP5K1C (Homo sapiens (Human), UniProt O60331)", "sequence (O60331 whole entry)": "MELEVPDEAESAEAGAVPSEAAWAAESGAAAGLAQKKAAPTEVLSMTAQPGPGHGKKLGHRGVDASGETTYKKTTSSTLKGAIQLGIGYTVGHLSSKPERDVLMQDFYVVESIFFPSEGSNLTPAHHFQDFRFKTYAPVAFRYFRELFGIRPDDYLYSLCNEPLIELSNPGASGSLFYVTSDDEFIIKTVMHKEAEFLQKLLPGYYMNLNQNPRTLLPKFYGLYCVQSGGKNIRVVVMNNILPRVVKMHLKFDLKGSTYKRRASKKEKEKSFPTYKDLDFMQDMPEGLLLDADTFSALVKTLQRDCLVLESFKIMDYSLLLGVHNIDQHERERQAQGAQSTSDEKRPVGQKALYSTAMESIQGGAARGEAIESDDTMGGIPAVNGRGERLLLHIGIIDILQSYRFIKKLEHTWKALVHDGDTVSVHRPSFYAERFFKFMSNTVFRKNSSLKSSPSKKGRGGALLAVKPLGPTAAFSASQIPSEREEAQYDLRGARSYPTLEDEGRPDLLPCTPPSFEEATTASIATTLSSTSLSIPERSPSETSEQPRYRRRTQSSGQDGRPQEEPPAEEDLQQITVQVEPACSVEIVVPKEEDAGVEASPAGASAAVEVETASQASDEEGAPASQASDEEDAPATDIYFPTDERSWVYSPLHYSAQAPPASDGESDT"}, "[2]": {"target": "RSK1 (Kin.Dom.2-C-terminal) (Homo sapiens (Human), UniProt Q15418)"}, "SLK": {"target": "SLK (Homo sapiens (Human), UniProt Q9H2G2)"}, "TLK1": {"target": "TLK1 (Homo sapiens (Human), UniProt Q9UKI8)"}, "TLK2": {"target": "TLK2 (Homo sapiens (Human), UniProt Q86UE8)"}, "TNNI3K": {"target": "TNNI3K (Homo sapiens (Human), UniProt Q59H18)"}, "YANK1": {"target": "YANK1 (Homo sapiens (Human), UniProt Q8WU08)"}},
  "data": [
    {"molecule": "COc1ccc(N2C(=O)N(c3c(C)cccc3C)Cc3cnc(Nc4ccc(N5CCN(C)CC5)cc4)nc32)c(OC)c1", "note": "[HG-11-136-01]", "values": [
      {"measurement": "KINOMEscan ABL1 (E255K)-phosphorylated", "setting": "[1]", "result": 0.4},
      {"measurement": "KINOMEscan ABL1-phosphorylated", "setting": "ABL1-phosphorylated", "result": 0},
      {"measurement": "KINOMEscan ALK", "setting": "ALK", "result": 1.6},
      {"measurement": "KINOMEscan AMPK-alpha1", "setting": "AMPK-alpha1", "result": 33},
      {"measurement": "KINOMEscan BIKE", "setting": "BIKE", "result": 8.8},
      {"measurement": "KINOMEscan BMX", "setting": "BMX", "result": 3},
      {"measurement": "KINOMEscan CDKL5", "setting": "CDKL5", "result": 98},
      {"measurement": "KINOMEscan CLK4", "setting": "CLK4", "result": 33},
      {"measurement": "KINOMEscan CSF1R", "setting": "CSF1R", "result": 0.35},
      {"measurement": "KINOMEscan DAPK2", "setting": "DAPK2", "result": 88},
      {"measurement": "KINOMEscan DMPK2", "setting": "DMPK2", "result": 1.6},
      {"measurement": "KINOMEscan EGFR (E746-A750del)", "setting": "EGFR (E746-A750del)", "result": 1.8},
      {"measurement": "KINOMEscan EGFR (G719S)", "setting": "EGFR (G719S)", "result": 0.2},
      {"measurement": "KINOMEscan ERK1", "setting": "ERK1", "result": 100},
      {"measurement": "KINOMEscan GRK4", "setting": "GRK4", "result": 26},
      {"measurement": "KINOMEscan INSR", "setting": "INSR", "result": 48},
      {"measurement": "KINOMEscan KIT (D816V)", "setting": "KIT (D816V)", "result": 0.2},
      {"measurement": "KINOMEscan LATS1", "setting": "LATS1", "result": 100},
      {"measurement": "KINOMEscan MEK6", "setting": "MEK6", "result": 30},
      {"measurement": "KINOMEscan MET (M1250T)", "setting": "MET (M1250T)", "result": 46},
      {"measurement": "KINOMEscan MST1", "setting": "MST1", "result": 2.1},
      {"measurement": "KINOMEscan MYLK", "setting": "MYLK", "result": 86},
      {"measurement": "KINOMEscan NEK11", "setting": "NEK11", "result": 21},
      {"measurement": "KINOMEscan NEK2", "setting": "NEK2", "result": 75},
      {"measurement": "KINOMEscan OSR1", "setting": "OSR1", "result": 49},
      {"measurement": "KINOMEscan PAK1", "setting": "PAK1", "result": 3.7},
      {"measurement": "KINOMEscan PAK2", "setting": "PAK2", "result": 61},
      {"measurement": "KINOMEscan PAK6", "setting": "PAK6", "result": 37},
      {"measurement": "KINOMEscan PCTK3", "setting": "PCTK3", "result": 100},
      {"measurement": "KINOMEscan PFTAIRE2", "setting": "PFTAIRE2", "result": 78},
      {"measurement": "KINOMEscan PHKG1", "setting": "PHKG1", "result": 100},
      {"measurement": "KINOMEscan PIK3CA (Q546K)", "setting": "PIK3CA (Q546K)", "result": 94},
      {"measurement": "KINOMEscan PIK3CD", "setting": "PIK3CD", "result": 72},
      {"measurement": "KINOMEscan PIP5K1C", "setting": "PIP5K1C", "result": 70},
      {"measurement": "KINOMEscan RSK1 (Kin.Dom.2-C-terminal)", "setting": "[2]", "result": 9.7},
      {"measurement": "KINOMEscan SLK", "setting": "SLK", "result": 0.1},
      {"measurement": "KINOMEscan TLK1", "setting": "TLK1", "result": 76},
      {"measurement": "KINOMEscan TLK2", "setting": "TLK2", "result": 92},
      {"measurement": "KINOMEscan TNNI3K", "setting": "TNNI3K", "result": 3.6},
      {"measurement": "KINOMEscan YANK1", "setting": "YANK1", "result": 0.2}
    ]}
  ]
}
